Measurements reported in patent US20070191493A1, “Use of n-alkanols as activators of the cftr channel” (priority 2003, published 2007).
Read-outs that look alike come from different tables or passages of the source.

What was measured:
CFTR channel [1] = molecular target: T1, CFTR channel (Homo sapiens, UniProt P13569); test: whole-cell patch-clamp in CHO-BQ1 cells, reversibility after washing; format: cell-based; design: expressed in transfected cells; host or cells: CHO-BQ1 cells; settings: octan-1-ol 1 mM, washing 15 min with physiological saline
T1 sequence (P13569 whole entry): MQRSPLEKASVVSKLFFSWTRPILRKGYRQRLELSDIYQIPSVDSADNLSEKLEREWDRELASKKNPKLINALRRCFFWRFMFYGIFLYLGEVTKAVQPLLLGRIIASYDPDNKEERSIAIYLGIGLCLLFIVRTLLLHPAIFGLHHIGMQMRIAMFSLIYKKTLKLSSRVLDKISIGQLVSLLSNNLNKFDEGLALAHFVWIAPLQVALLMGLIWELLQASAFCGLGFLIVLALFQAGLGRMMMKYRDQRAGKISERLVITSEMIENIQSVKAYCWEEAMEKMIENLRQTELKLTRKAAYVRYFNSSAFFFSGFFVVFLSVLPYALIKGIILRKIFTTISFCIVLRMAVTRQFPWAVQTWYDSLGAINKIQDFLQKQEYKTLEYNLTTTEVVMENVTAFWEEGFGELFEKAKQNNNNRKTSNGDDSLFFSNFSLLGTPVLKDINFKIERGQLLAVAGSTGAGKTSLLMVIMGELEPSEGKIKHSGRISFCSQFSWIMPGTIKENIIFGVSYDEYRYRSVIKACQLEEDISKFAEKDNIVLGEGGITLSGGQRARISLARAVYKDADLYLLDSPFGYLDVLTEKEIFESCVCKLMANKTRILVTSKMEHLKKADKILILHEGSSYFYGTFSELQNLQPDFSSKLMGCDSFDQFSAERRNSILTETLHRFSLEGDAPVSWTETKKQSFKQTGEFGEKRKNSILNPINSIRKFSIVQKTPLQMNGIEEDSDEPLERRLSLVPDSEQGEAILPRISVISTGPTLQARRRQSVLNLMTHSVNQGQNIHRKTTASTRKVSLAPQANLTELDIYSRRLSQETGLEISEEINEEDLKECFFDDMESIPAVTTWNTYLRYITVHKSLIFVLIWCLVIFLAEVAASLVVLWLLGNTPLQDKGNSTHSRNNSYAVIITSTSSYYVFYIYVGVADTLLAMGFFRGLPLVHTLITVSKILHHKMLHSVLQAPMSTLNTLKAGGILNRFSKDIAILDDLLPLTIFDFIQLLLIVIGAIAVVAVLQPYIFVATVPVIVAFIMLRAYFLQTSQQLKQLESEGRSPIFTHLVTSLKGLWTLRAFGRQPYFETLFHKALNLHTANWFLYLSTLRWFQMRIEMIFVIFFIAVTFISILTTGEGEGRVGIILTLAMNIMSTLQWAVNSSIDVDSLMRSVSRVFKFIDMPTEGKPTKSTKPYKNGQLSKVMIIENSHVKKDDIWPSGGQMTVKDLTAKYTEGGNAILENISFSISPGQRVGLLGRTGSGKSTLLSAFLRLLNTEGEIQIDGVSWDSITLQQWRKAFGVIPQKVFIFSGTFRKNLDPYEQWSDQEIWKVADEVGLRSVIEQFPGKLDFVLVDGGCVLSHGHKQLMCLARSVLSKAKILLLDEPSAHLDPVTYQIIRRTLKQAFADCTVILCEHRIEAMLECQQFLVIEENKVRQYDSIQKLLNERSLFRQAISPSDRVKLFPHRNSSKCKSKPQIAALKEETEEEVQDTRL
Description: (§1) More specifically, culture dishes (cell support) are placed in an experimentation cell (volume 1 ml) on the platform of an inverted microscope (Nikon) equipped with phase-contrast lighting. The whole-cell configuration is used for recording the cell currents (Hamill et al., 1981). The experiments are carried out at ambient temperature (20-22° C.). The currents are amplified with an Axopatch 200B amplifier (Axon Instrument Ltd) having a 2-5 kHz low-pass filter (Bessel 6-pole filter), and recorded on the hard disk of a PC after digitization at 10-25 kHz. The pipettes are produced from glass tubes 1 mm in diameter (Clark Electromedical Instrument) in four steps with a horizontal drawing device (Bruwn Flaming 97, CA).
(§2) The pipettes, filled with an intracellular solution containing, in mM: 60 KCl; 80 NMDG ([…]); 10 HEPES; 5 EGTA; 1 CaCl2; 4 MgATP; 0.2 Na3GTP; pH 7.4, titrated with KOH), having a resistance of 5 MΩ. The potentials are expressed as the difference between the potential of the patch electrode and that of the bath. In the whole-cell configuration, they represent the membrane potential of the cell. […] The current-voltage relationships in the stationary state are determined using slow voltage ramps (20 mV/.s) under an imposed voltage condition. […]

CFTR channel [2] = molecular target: T1, CFTR channel; test: whole-cell patch-clamp in CHO-CFTR(+) cells; format: cell-based; design: expressed in transfected cells; host or cells: CHO (Chinese hamster ovary) cells, CHO-CFTR(+)
Source text: The patch-clamp technique consists in applying a glass pipette or a glass microelectrode to the surface of the cell. By applying slight touch, it is possible to cause the membrane to adhere to the glass. A small piece of membrane (patch) is thus isolated at the end of the pipette. This is the principle of patch-clamp (O. P. Hamill et al., Pflügers Arch., 1981, 391, 85-100; R. Penner, A Practical Guide to Patch Clamping, 1995, In Single Channel Recording, 2nd edition (Eds. B. Sakmann et al.) Plenum Press, New York, 3-30). To do this, the patch-clamp pipette must have a tip of the order of 1 μm in diameter and a resistance of the order of 1-5 MΩ. The resistance of a pipette or of a microelectrode makes it possible to assess the fineness of the tip: the greater the resistance, the finer the tip or the more the electrode is blocked. […] Interactions between the membrane and the glass will form, aided by a slight suction or negative pressure in the pipette. The quality of this interaction (or sealing) is also assessed by measuring the resistance between the glass and the membrane. To measure overall currents in the whole cell configuration, a sealing resistance of 1 GΩ is sufficient.
as §1
as §2, with “cell. The junction potentials that form between the recording electrode and the extracellular medium are eliminated before the contact of the electrode with the cell.” for “cell.”

CFTR channel [3] = molecular target: T1, CFTR channel; test: 125I radioactive iodide efflux in CHO-CFTR(+) cells; format: cell-based; design: expressed in transfected cells; host or cells: CHO (Chinese hamster ovary) cells, CHO-CFTR(+)
Description: The cells are cultured in 24-well plates with a dilution to 1/10 after passage. […] The operation is repeated every 30 s for 2 to 6 min. […] All the samples are counted in a gamma counter (Kontron). The precipitated proteins are solubilized in 0.1N NaOH and quantified using a calorimetric test.
The tracer contained in the cell layer at the beginning of the efflux is calculated as the sum of the samples and of the extracts counted. The efflux curves are constructed by expressing the percentage of the content remaining in the cell layer (I %) with respect to time. The stimulated or nonstimulated efflux rate constants (k, min^−1) are determined by smoothing the efflux curves to a monoexponential function I %=100*exp(−kt) using a linear regression of the neperian logarithm of the data, k is used to calculate the iodide released into the medium with respect to time. The hypothesis is made that, in the presence of a stimulator, the efflux is the sum of two iodide effluxes occurring in parallel: a basal efflux and a stimulated efflux characterized, respectively, by the constants kb and ks. The total net efflux is then described by the equation It^%=100*(1−exp(−ktt)) where kt is the sum of kb and ks. Finally, ks calculated as kt−kb is used to establish a dose-response relationship for antagonists. The data is expressed as means ±SD, and the t-test is used to determine the significances. The concentration-response curves for agonists or for antagonists are smooth using the hyperbolic equation Y=Ymax*X/(EC5C+X), where Y is the response. Y begins at the basal level and progresses to the plateau (Ymax), X is the concentration and the half-effect values (EC are calculated using GraphPad Prism v3.0 (GraphPad software)).

intracellular cAMP level = test: total intracellular cAMP assay in CHO-CFTR(+) cells; format: cell-based, Chinese hamster; settings: 5 min, FSK 1 or 5 μM, alcohols 1 mM
Description: The CHO cells are cultured for four days in a 24-well culture plate. On the fourth day of culture, each well is rinsed twice with 500 μl of medium B, and 500 μl of this buffer containing the molecule to be tested are added to each well. After incubation at 37° C. for 5 min, the reaction is stopped by adding a cell lysis buffer. The cell lysis is verified with Trypan blue. The amount of cAMP contained in the cells is determined using the Enzyme Immuno Assay kit (Amersham Biotechnology). The cAMP level is expressed in pmol/well ±SD.

- reversibility of the activating effect on CFTR (CFTR channel [1]): reversible
- activation of the CFTR channel by patch-clamp, in words (CFTR channel [2]; octan-1-ol alone 1 mM, without FSK): full activation
- reversion potential of the induced current (CFTR channel [2]; whole-cell, FSK- or octan-1-ol-induced current): 1±0.6 mV
- increase in membrane conductance compared with the control (CFTR channel [2]; whole-cell, FSK 1 μM, octan-1-ol 1 mM): approximately 10 fold
- concentration at which plateau of CFTR activation is reached (CFTR channel [3]; CHO-CFTR(+) cells): 1 mM
- activation of CFTR (125I efflux), in words (CFTR channel [3]; CHO-CFTR(+) cells, n-alkanols 1 mM, FSK 1 μM, A23187 2 μM, α-GA 10 and 100 μM): increase in activation of CFTR
- EC50 (CFTR channel [3]; CHO-CFTR(+) cells, read-out: half-activation dose): 500 µM
- EC50 (CFTR channel [3]; EC50 of activation of CFTR (125I efflux rate constant), CHO-CFTR(+) cells, octan-1-ol 0.1 to 5 mM): ~500 µM
Compound: CCCCCCCCO [octan-1-ol]
- order of activation of CFTR by n-alkanols (CFTR channel [3]; 1 mM, 125I efflux or patch-clamp): hexan-1-ol<heptan-1-ol<octan-1-ol<octan-2-ol<decan-1-ol
- effect on intracellular cAMP level (intracellular cAMP level): neither octan-1-ol, hexan-1-ol or ethanol modifies the basal cAMP level
